A short description of series [1]: Induction of H2S release in potassium phosphate buffer at pH 7.4 after 15 mins by methylene-blue assay. Conditions: pH 7.4, 0.25 h. The series is classed as physicochemical.
The test system of series [2] is Oryctolagus cuniculus. Kind of series: Toxicity in New Zealand white rabbit assessed as baseline mean blood pressure at 1.79 umol/kg, administered as single bolus dose (reference value: 74 +/- 5 mmHg). The series is classed as organism-based. The conditions noted are these: in vivo.
The subject of series [3] is Oryctolagus cuniculus. Kind of series: Toxicity in New Zealand white rabbit myocardial ischemia/reperfusion injury model assessed as mean blood pressure at 1.79 umol/kg, administered as single bolus dose at 20 mins of sustained ischemia (reference value: 64 +/- 5 mmHg). The format is organism-based. Conditions: in vivo.
The test system of series [4] is Oryctolagus cuniculus. Kind of series: Toxicity in New Zealand white rabbit myocardial ischemia/reperfusion injury model assessed as heart rate at 1.79 umol/kg, administered as single bolus dose at 20 mins of sustained ischemia (reference value: 276 +/- 9 bpm). The format is organism-based. Conditions: in vivo.
In series [5] the test system is Oryctolagus cuniculus. Briefly: Toxicity in New Zealand white rabbit assessed as heart weight at 1.79 umol/kg, administered as single bolus dose (reference value: 7.2 +/- 0.3 g). The series is classed as organism-based. The conditions noted are these: in vivo.
Series [6] concerns Oryctolagus cuniculus. Kind of series: Toxicity in New Zealand white rabbit assessed as baseline heart rate at 1.79 umol/kg, administered as single bolus dose (reference value: 269 +/- 10 bpm). The series is classed as organism-based. Conditions: in vivo.
For series [7], the system named is Oryctolagus cuniculus. Briefly: Toxicity in New Zealand white rabbit myocardial ischemia/reperfusion injury model assessed as heart rate at 1.79 umol/kg, administered as single bolus dose at 180 mins of reperfusion (reference value: 254 +/- 11 bpm). The format is organism-based. Conditions: in vivo, 3 h.
Series [8] relates to Oryctolagus cuniculus. Kind of series: Toxicity in New Zealand white rabbit myocardial ischemia/reperfusion injury model assessed as mean blood pressure at 1.79 umol/kg, administered as single bolus dose at 180 mins of reperfusion (reference value: 60 +/- 4 mmHg). The format is organism-based. The conditions noted are these: in vivo, iv, 3 h.
The subject of series [9] is Oryctolagus cuniculus. Briefly: Toxicity in New Zealand white rabbit myocardial ischemia/reperfusion injury model assessed as mean blood pressure at 1.79 umol/kg, administered as single bolus dose at 20 mins of sustained ischemia in presence of non selective adenosine receptor inhibitor SPT (reference value: 64 +/- 5 mmHg). The conditions noted are these: in vivo, iv. The series is classed as organism-based.

A short description of series [10]: Induction of H2S release in potassium phosphate buffer at 20 uM at pH 7.4 by Amperometric method. The format is physicochemical. The conditions noted are these: pH 7.4, 20 µM.
The test system of series [11] is Oryctolagus cuniculus. Briefly: Toxicity in New Zealand white rabbit myocardial ischemia/reperfusion injury model assessed as heart rate at 1.79 umol/kg, administered as single bolus dose at 180 mins of reperfusion in presence of non selective adenosine receptor inhibitor SPT (reference value: 254 +/- 11 bpm). The series is classed as organism-based. Conditions: in vivo, 3 h.

Series [12] in a line: Induction of H2S release in ammonium carbonate buffer at 100 uM at pH 7.4 by mass spectrometry. The format is physicochemical. The conditions noted are these: pH 7.4, 100 µM.
Series [13] relates to Oryctolagus cuniculus. Kind of series: Toxicity in New Zealand white rabbit myocardial ischemia/reperfusion injury model assessed as heart rate at 1.79 umol/kg, administered as single bolus dose at 20 mins of sustained ischemia in presence of non selective adenosine receptor inhibitor SPT (reference value: 276 +/- 9 bpm). The series is classed as organism-based. The conditions noted are these: in vivo.

Series [14] deals with Oryctolagus cuniculus. Kind of series: Increase in PLN phosphorylation at Ser16/Thr17 in tissue from ischemic area of myocardium in New Zealand white rabbit myocardial ischemia/reperfusion injury model at 1.79 umol/kg administered as single bolus dose at 10th min of reperfusion by Western blot analysis relative to control. The format is functional, organism-based.
Series [15] relates to Oryctolagus cuniculus. Briefly: Cardioprotective activity in New Zealand white rabbit myocardial ischemia/reperfusion injury model assessed as reduction in infarct size at 1.79 umol/kg, administered as single bolus dose at 20th min of sustained ischemia by TTC staining (reference value: 47.9 +/- 0.7 %). More on the design: scale not given: the % may be the effect or the level left. The series is classed as functional, Myocardium.

The test system of series [16] is Oryctolagus cuniculus. Briefly: Toxicity in New Zealand white rabbit assessed as heart weight at 1.79 umol/kg, administered as single bolus dose in presence of non selective adenosine receptor inhibitor SPT (reference value: 7.2 +/- 0.3 g). The series is classed as organism-based. The conditions noted are these: in vivo.
Series [17] deals with RLF-6. Kind of series: Induction of H2S release in RLF-6 cells assessed as cGMP accumulation at 250 uM after 5 mins by enzyme immuno assay. The format is functional, cell-based. Conditions: Rattus norvegicus.
Series [18] is described as follows: Induction of H2S release in potassium phosphate buffer at 100 uM at pH 7.4 by Amperometric method. The format is physicochemical. The conditions noted are these: pH 7.4, 100 µM.
The test system of series [19] is Oryctolagus cuniculus. Briefly: Toxicity in New Zealand white rabbit assessed as baseline mean blood pressure at 1.79 umol/kg, administered as single bolus dose in presence of SPT (reference value: 74 +/- 5 mmHg). The format is organism-based. Conditions: in vivo.
Series [20] relates to Oryctolagus cuniculus. Kind of series: Cardioprotective activity in New Zealand white rabbit myocardial ischemia/reperfusion injury model assessed as reduction in infarct size at 1.79 umol/kg, administered as single bolus dose at 20 mins before sustained ischemia by TTC staining in presence of non selective adenosine receptor inhibitor SPT (reference value: 47.9 +/- 0.7 %). The format is functional, Myocardium. The arrangement: scale not given: the % may be the effect or the level left.

Series [21] is described as follows: Induction of H2S release in potassium phosphate buffer at 100 uM at pH 7.4 by Amperometric method in presence of glutathione. The series is classed as physicochemical. Conditions: pH 7.4, 100 µM.
Series [22] deals with Oryctolagus cuniculus. Briefly: Toxicity in New Zealand white rabbit assessed as baseline heart rate at 1.79 umol/kg, administered as single bolus dose in presence of non selective adenosine receptor inhibitor SPT (reference value: 269 +/- 10 bpm). The series is classed as organism-based. The conditions noted are these: in vivo.
Series [23] has as its system Oryctolagus cuniculus. Briefly: Toxicity in New Zealand white rabbit myocardial ischemia/reperfusion injury model assessed as mean blood pressure at 1.79 umol/kg, administered as single bolus dose at 180 mins of reperfusion in presence of SPT (reference value: 60 +/- 4 mmHg). The format is organism-based. Conditions: in vivo, 3 h.
Series [24] deals with Oryctolagus cuniculus. Kind of series: Increase in VASP phosphorylation at Ser239 in tissue from ischemic area of myocardium in New Zealand white rabbit myocardial ischemia/reperfusion injury model at 1.79 umol/kg administered as single bolus dose at 10th min of reperfusion by Western blot analysis. The series is classed as functional, organism-based. (In general: Immunoblotting shows a protein as a band on a membrane.)

Series [25] can be described thus: Induction of H2S release in ammonium carbonate buffer at 100 uM at pH 7.4 by mass spectrometry in presence of glutathione. The series is classed as physicochemical. Conditions: pH 7.4, 100 µM.
The subject of series [26] is RLF-6. Briefly: Induction of H2S release in RLF-6 cells assessed as cGMP accumulation after 5 mins by enzyme immuno assay. Conditions: Rattus norvegicus. The format is functional, cell-based.
Series [27] relates to Oryctolagus cuniculus. Briefly: Toxicity in New Zealand white rabbit assessed as baseline heart rate at 3.58 umol/kg, administered as single bolus dose (reference value: 269 +/- 10 bpm). The format is organism-based. Conditions: in vivo.
For series [28], the system named is Oryctolagus cuniculus. Kind of series: Toxicity in New Zealand white rabbit myocardial ischemia/reperfusion injury model assessed as mean blood pressure at 3.58 umol/kg, administered as single bolus dose at 180 mins of reperfusion (reference value: 60 +/- 4 mmHg). Conditions: in vivo, 3 h. The series is classed as organism-based.
Series [29] deals with Oryctolagus cuniculus. Kind of series: Toxicity in New Zealand white rabbit assessed as heart weight at 3.58 umol/kg, administered as single bolus dose (reference value: 7.2 +/- 0.3 g). The format is organism-based. Conditions: in vivo.
The test system of series [30] is Oryctolagus cuniculus. Kind of series: Toxicity in New Zealand white rabbit myocardial ischemia/reperfusion injury model assessed as heart rate at 3.58 umol/kg, administered as single bolus dose at 180 mins of reperfusion (reference value: 254 +/- 11 bpm). Conditions: in vivo, 3 h. The format is organism-based.
For series [31], the system named is Oryctolagus cuniculus. Briefly: Toxicity in New Zealand white rabbit myocardial ischemia/reperfusion injury model assessed as mean blood pressure at 3.58 umol/kg, administered as single bolus dose at 20 mins of sustained ischemia (reference value: 64 +/- 5 mmHg). The format is organism-based. The conditions noted are these: in vivo.
Series [32] has as its system Oryctolagus cuniculus. Briefly: Toxicity in New Zealand white rabbit assessed as baseline mean blood pressure at 3.58 umol/kg, administered as single bolus dose (reference value: 74 +/- 5 mmHg). Conditions: in vivo. The format is organism-based.
Series [33] relates to Oryctolagus cuniculus. Kind of series: Cardioprotective activity in New Zealand white rabbit myocardial ischemia/reperfusion injury model assessed as reduction in infarct size at 3.58 umol/kg, administered as single bolus dose at 20th min of sustained ischemia by TTC staining (reference value: 47.9 +/- 0.7 %). The series is classed as functional, Myocardium. More on the design: scale not given: the % may be the effect or the level left.

In series [34] the test system is Oryctolagus cuniculus. Briefly: Toxicity in New Zealand white rabbit myocardial ischemia/reperfusion injury model assessed as heart rate at 3.58 umol/kg, administered as single bolus dose at 20 mins of sustained ischemia (reference value: 276 +/- 9 bpm). Conditions: in vivo. The format is organism-based.

SMILES strings stand for the structures. Active and inactive are the calls of the source. No cut-off for these calls is given here.

Take `Nc1ncnc2c1ncn2CCCCOc1ccc(-c2cc(=S)ss2)cc1`: in series [1], the Activity result is reported as “Dose-dependent effect”.

For the molecule `[Na+].[SH-]` [SODIUM HYDROSULFIDE], the Activity in series [2] was determined as 81 mmHg; in series [3], 76 mmHg; in [4] it was 268 bpm; in [5], 7.1 g; in [6] it was 273 bpm; in [7], 262 bpm. For the same molecule, in series [8], the Activity was determined as 68 mmHg.

Turning to `NC(=S)c1ccc(OC[C@H]2O[C@@H](n3cnc4c(N)ncnc43)[C@H](O)[C@@H]2O)cc1`, the Activity was 82 mmHg in series [2]; 71 mmHg in [9]; “Not Active” in [10]; 83 mmHg in series [3]; 260 bpm in series [11]; 0.8 µM/min in [12]. Further, the Activity in [13] was determined as 260 bpm; in series [4], 256 bpm; in [15] it was 20.1%; in series [16], 7.2 g; in [5] it was 7.6 g; in series [6], 258 bpm. Further, the Activity is 256 bpm in series [7]; “Active” in [18]; 86 mmHg in series [19]; 18.3% in [20]; “Not Active” in series [21]; “Dose-dependent effect” in [1]. Besides, the Activity is given as 76 mmHg in series [8], 262 bpm in [22], 77 mmHg in series [23] and “Not Active” in series [25]. Besides, the outcome in series [14], in series [17] and in series [24] was Active.

As to `NC(=S)c1ccc(O)cc1`, the Activity in [15] worked out at 24.9%. For the same molecule, the result in series [17] was Active.

As to `Nc1ncnc2c1ncn2CCCCO`, the Activity is recorded as 95 mmHg in series [2]; 88 mmHg in series [3]; 266 bpm in series [4]; 32.4% in series [15]; 7.3 g in series [5]; 275 bpm in [6]. The figures for the Activity in [7] and in [8] were 270 bpm and 90 mmHg, respectively. Further, in series [26], the result was inactive.

Turning to `Nc1ncnc2c1ncn2[C@@H]1O[C@H](COc2ccc(-c3cc(=S)ss3)cc2)[C@@H](O)[C@H]1O`, the Activity entry in [1] is reported as “Dose-dependent effect”.

For the molecule `NC(=S)c1ccc(OCCCCn2cnc3c(N)ncnc32)cc1`, the Activity in series [2] is on record as 90 mmHg; in [9] it was 76 mmHg; in series [3], 82 mmHg; in [11], 276 bpm; in [13], 270 bpm; in [4], 276 bpm. The Activity came to 16.6% in [15]; 7.5 g in [16]; 285 bpm in series [27]; 7.2 g in [5]; 52 mmHg in series [28]; 7.4 g in [29]. The Activity in series [6] is listed as 266 bpm; in [7] it was 255 bpm; in series [19] it was 81 mmHg; in [20], 16.9%; in series [30], 258 bpm; in series [1] it was “Dose-dependent effect”. Further, the Activity in series [8] came to 80 mmHg; in series [22], 278 bpm; in [31], 40 mmHg; in [32], 78 mmHg; in series [23], 76 mmHg; in [33] it was 26.7%. For the same molecule, in series [34], the Activity is 242 bpm. The outcome in [14], in series [17] and in series [24] was Active.

On to `CC1(C)O[C@@H]2[C@H](O1)[C@@H](COc1ccc(-c3cc(=S)ss3)cc1)O[C@H]2n1cnc2c(N)ncnc21`, for which, in series [1], the Activity result is listed as “Dose-dependent effect”.

Turning to `Nc1ncnc2c1ncn2[C@@H]1O[C@H](CO)[C@@H](O)[C@H]1O`, the result in series [26] was inactive.

As for `CC1(C)O[C@@H]2[C@H](O1)[C@@H](COc1ccc(C(N)=S)cc1)O[C@H]2n1cnc2c(N)ncnc21`, the result in series [17] was Active. Also, the Activity result in series [1] is “Dose-dependent effect”.
